Test [1] addresses T1, Serine/threonine-protein kinase Chk1 (Homo sapiens, UniProt O14757).
T1 sequence (O14757 whole entry): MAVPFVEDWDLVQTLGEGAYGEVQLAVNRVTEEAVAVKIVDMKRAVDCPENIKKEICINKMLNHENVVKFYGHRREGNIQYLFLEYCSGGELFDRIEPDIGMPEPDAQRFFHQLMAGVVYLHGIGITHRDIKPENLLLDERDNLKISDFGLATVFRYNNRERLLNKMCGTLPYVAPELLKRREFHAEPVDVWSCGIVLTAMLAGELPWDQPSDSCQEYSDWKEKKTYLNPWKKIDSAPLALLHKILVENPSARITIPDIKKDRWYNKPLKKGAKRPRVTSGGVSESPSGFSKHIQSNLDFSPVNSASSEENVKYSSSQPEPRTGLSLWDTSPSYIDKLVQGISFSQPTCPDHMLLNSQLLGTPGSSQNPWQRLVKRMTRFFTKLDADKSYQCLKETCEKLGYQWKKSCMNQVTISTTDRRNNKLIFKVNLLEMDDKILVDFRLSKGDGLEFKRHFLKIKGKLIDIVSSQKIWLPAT
The test is described as follows: Inhibition of Chk1.

Another test has as its system HT-29. The test is described as follows: Abrogation of camptothecin induced cell cycle arrest at G2/M phase in human HT29 cells. Type of test: functional, cell-based.

In turn, `CNCc1ccc(-c2cc(C(N)=O)c(NC(N)=O)s2)cc1` showed an IC50 in test [1] above 300 nM.

For the compound `CCN(CC)CCOc1ccc(-c2cc(C(=O)Nc3cccc(CO)c3)c(NC(N)=O)s2)cc1`, the midpoint of inhibition in test [1], the IC50, lay at 50 nM. The compound further yielded a 50% effective concentration (EC50) in the test with HT-29 (Homo sapiens, HT-29) above 12500 nM.

With `CN(C)CCOc1ccc(-c2cc(C(N)=O)c(NC(N)=O)s2)cc1`, the EC50 in the test on HT-29 (Homo sapiens, HT-29) was above 12500 nM.

In test [1], `COc1ccc(-c2cc(C(N)=O)c(NC(N)=O)s2)cc1` registered an IC50 of 5000 nM.

Regarding `COCCNCc1ccc(-c2cc(C(N)=O)c(NC(N)=O)s2)cc1`, in test [1], the IC50 turned out to be 72 nM.

In the case of `CN(CCO)Cc1ccc(-c2cc(C(N)=O)c(NC(N)=O)s2)cc1`, the IC50 in test [1] stood at 31 nM.

Regarding `CN(C)CCCOc1ccc(-c2cc(C(N)=O)c(NC(N)=O)s2)cc1`, the IC50 in test [1] is 230 nM. This IC50 lies about 7.4-fold higher than the previous one.

`NC(=O)Nc1sc(-c2ccc(OCCN3CCCCC3)cc2)cc1C(N)=O` had an IC50 in test [1] of 230 nM.

For the compound `NC(=O)Nc1sc(-c2ccc(OCCOCC3CC3)cc2)cc1C(N)=O`, half-maximal inhibition in test [1] (IC50) required 23000 nM.

In test [1], `COCCOCCOc1ccc(-c2cc(C(N)=O)c(NC(N)=O)s2)cc1` gave an IC50 of 4100 nM.

`NC(=O)Nc1sc(-c2ccc(CNC3CCCC3)cc2)cc1C(N)=O` yielded an IC50 in test [1] of 39 nM. This IC50 lies about 110-fold lower than the previous one.

In test [1], `COCCOc1ccc(-c2cc(C(N)=O)c(NC(N)=O)s2)cc1` gave an IC50 of 6700 nM.

Compound `CN(CCN)C(=O)c1cc(-c2ccccc2)sc1NC(N)=O` registered an IC50 in test [1] of 5500 nM.

Compound `NC(=O)Nc1sc(-c2ccccc2)cc1C(=O)NC1CCOCC1` showed an IC50 in test [1] of 2100 nM.

Take `CC1(C)CCCC(C)(C)N1Cc1ccc(-c2cc(C(N)=O)c(NC(N)=O)s2)cc1`: the IC50 in test [1] came to 17 nM.

For `CCN(CC)CCOc1ccc(-c2cc(C(=O)Nc3cccnc3)c(NC(N)=O)s2)cc1`, in test [1], the IC50 amounted to 100 nM. The EC50 in the test with HT-29 (Homo sapiens, HT-29) was above 12500 nM.

The compound `CCN(CC)CCOc1ccc(-c2cc(C(=O)NC3CCNC3)c(NC(N)=O)s2)cc1` (configuration not stated) had an IC50 in test [1] of 100 nM. For the same compound, the EC50 with HT-29 (Homo sapiens, HT-29) is above 12500 nM.

`CCN(CC)CCOc1ccc(-c2cc(C(=O)NC3CCNCC3)c(NC(N)=O)s2)cc1` yielded an IC50 in test [1] of 35 nM. The compound further came in with a concentration giving a half-maximal response (EC50) in the test with HT-29 (Homo sapiens, HT-29) above 12500 nM.

The compound `NC(=O)Nc1sc(-c2ccccc2)cc1C(=O)NC1CCCCC1` came in with an IC50 in test [1] of 3900 nM.

Compound `NC(=O)Nc1sc(-c2ccccc2)cc1C(=O)Nc1ccccc1` showed an IC50 in test [1] of 1000 nM.

`NC(=O)Nc1sc(-c2ccccc2)cc1C(=O)NCC1CNCCO1` (configuration not stated) came in with an IC50 in test [1] of 300 nM.

The compound `NC(=O)Nc1sc(-c2ccccc2)cc1C(=O)NC1CNCCNC1=O` (configuration not stated) returned an IC50 in test [1] of 110 nM.

In test [1], `NC(=O)Nc1sc(-c2ccccc2)cc1C(=O)N[C@@H]1CN2CCC1CC2` had a 50% inhibitory concentration (IC50) of 130 nM.

In test [1], `COc1ccc(Nc2cc(-c3cccnc3)[nH]n2)cc1OC` yielded an IC50 of 600 nM. Compared with the last compound, the IC50 is about 4.6-fold higher.

`NC(=O)Nc1sc(-c2ccccc2)cc1C(=O)NC1CCNCC1` came in with an IC50 in test [1] of 110 nM.

`NC(=O)Nc1sc(-c2ccccc2)cc1C(=O)N1CCOCC1`: the IC50 in test [1] is above 30000 nM.

The compound `NC(=O)Nc1sc(-c2ccc(CN3CCCCC3)cc2)cc1C(N)=O` displayed an IC50 in test [1] of 37 nM. The compound further showed an EC50 with HT-29 (Homo sapiens, HT-29) of 270 nM.

Compound `NC(=O)Nc1sc(-c2ccc(OC(F)(F)F)cc2)cc1C(N)=O` registered a half-maximal inhibitory concentration (IC50) in test [1] of 2600 nM. In other words, the single-digit micromolar range.

`COc1ccc(CNCc2ccc(-c3cc(C(N)=O)c(NC(N)=O)s3)cc2)cc1`: in test [1], the concentration for half-maximal inhibition (IC50) came to 29 nM.

`CNCCOc1ccc(-c2cc(C(N)=O)c(NC(N)=O)s2)cc1` had an IC50 in test [1] of 360 nM.

Turning to `NC(=O)Nc1sc(-c2ccccc2)cc1C(=O)NCCO`, it took 5100 nM to reach half-maximal inhibition in test [1] (IC50). Against the preceding compound, the IC50 is about 14-fold higher.

As for `NC(=O)Nc1sc(-c2ccccc2)cc1C(=O)N[C@H]1CN2CCC1CC2`, inhibition in test [1] was half-maximal at 980 nM (IC50). Against the preceding compound, the IC50 is about 5.2-fold lower.

In test [1], `CN1CCN(Cc2ccc(-c3cc(C(N)=O)c(NC(N)=O)s3)cc2)CC1` registered an IC50 of 41 nM.

As for `NC(=O)Nc1sc(-c2ccccc2)cc1C(=O)NCc1ccccc1`, in test [1], the IC50 was above 10000 nM.

Regarding `CN1CCN(C(=O)c2cc(-c3ccccc3)sc2NC(N)=O)CC1`, in test [1], the IC50 turned out to be 7100 nM.

Compound `CCN(CC)CCOc1ccc(-c2cc(C(=O)NC3CCCNC3)c(NC(N)=O)s2)cc1` (configuration not stated) came in with an EC50 with HT-29 (Homo sapiens, HT-29) of 17 nM. This lies in the double-digit nanomolar range.

On to `NC(=O)Nc1sc(-c2ccccc2)cc1C(=O)N[C@@H]1CCCNC1`, for which the EC50 in the test with HT-29 (ht-29) worked out at 1900 nM.

For orientation: IC50 means the concentration needed to halve the response being measured. A higher IC50 goes with weaker potency in that assay. What is called EC50 is the concentration needed to bring the measured effect to its halfway point. Read a low EC50 as an effect from little substance.

For the origin of these results see ChEMBL document CHEMBL1157515, “Discovery of a novel class of 2-ureido thiophene carboxamide checkpoint kinase inhibitors” (Bioorg Med Chem Lett, 2008).
